{
  "source": "patent US12336995B2",
  "about": "“Combination therapies” (Mirati Therapeutics, Inc., priority 2018, dated 2025)",
  "key": {"H2122 cells [1]": {"system": "H2122 cells", "conditions": "H2122-implanted mice; Day 46 (Treatment Day 35); single agent 100 mg/kg p.o. daily; Table 6b", "method": "(§1) Immunocompromised nude/nude mice were inoculated in the right hind flank with cells or patient derived tumor samples harboring a KRas G12C mutation. […] The first group was administered vehicle only. […] The fourth group was administered the single agent dose of the KRas G12C inhibitor in combination with the single agent dose of the pan ErbB family inhibitor. […] Tumor volumes were measured using a caliper every two-three days and tumor volumes were calculated by the formula: 0.5×(Length×Width)^2.\n(§2) Tumor volumes were measured at pre-specified days set forth below."}, "LU6405 cells (PDX model)": {"system": "LU6405 cells (PDX model)", "experiment": "In vivo PDX model, Compound 478 and Afatinib (Table 4c)", "conditions": "for Average Tumor Volumes: LU6405, Afatinib 12.5 mg/kg, single or combined", "method": "as §1, §2"}, "CR6258 Tumor": {"system": "CR6258 Tumor", "experiment": "In vivo PDX model, Compound 478 and Cetuximab (Table 5a)", "set-up": "species or system nude/nude mice", "conditions": "for Average Tumor Volumes: CR6258, Cetuximab 0.25 mg/kg i.p. every third day, single or combined", "method": "as §1\n(§3) In a related experiment, on Day 1, two sets of 20 nude/nude mice each were inoculated in the right hind limb with 5×10^6 CR6256 cells or CR2528 cells (PDX models). […] Tumor volumes were measured at pre-specified days set forth below."}, "[2]": {"system": "CR2528 cells (PDX models)", "experiment": "In vivo PDX model, Compound 478 and Cetuximab (Table 5b)", "set-up": "species or system nude/nude mice", "conditions": "for Average Tumor Volumes: CR2528, Cetuximab 0.25 mg/kg i.p. every third day, single or combined", "method": "as §1, §3"}, "KYSE-410 cells [3]": {"system": "KYSE-410 cells", "conditions": "KYSE-410-implanted mice; Day 61 (Treatment Day 50); single agent 100 mg/kg p.o. daily; Table 6a", "method": "as §1, §2"}, "H2122 cells [4]": {"system": "H2122 cells", "experiment": "In vivo tumor model, Compound 478 and Afatinib (Table 4a)", "conditions": "for Average Tumor Volumes: H2122, Afatinib 12.5 mg/kg, single or combined", "method": "as §1, §2"}, "KYSE-410 cells [5]": {"system": "KYSE-410 cells", "experiment": "In vivo tumor model, Compound 478 and Afatinib (Table 4b)", "conditions": "for Average Tumor Volumes: KYSE-410, Afatinib 12.5 mg/kg, single or combined", "method": "as §1, §2"}, "[6]": {"conditions": "Day 11 post implant (treatment start), p.o. daily: Compound 478 100 mg/kg"}, "[7]": {"conditions": "Day 14 post implant, p.o. daily from Day 11: Compound 478 100 mg/kg"}, "[8]": {"conditions": "Day 18 post implant, p.o. daily from Day 11: Compound 478 100 mg/kg"}, "[9]": {"conditions": "Day 21 post implant, p.o. daily from Day 11: Compound 478 100 mg/kg"}, "[10]": {"conditions": "Day 25 post implant, p.o. daily from Day 11: Compound 478 100 mg/kg"}, "[11]": {"conditions": "Day 28 post implant, p.o. daily from Day 11: Compound 478 100 mg/kg"}, "[12]": {"conditions": "Day 32 post implant, p.o. daily from Day 11: Compound 478 100 mg/kg"}, "[13]": {"conditions": "Day 34 post implant, p.o. daily from Day 11: Compound 478 100 mg/kg"}, "[14]": {"conditions": "Day 11 post implant (treatment start), Compound 478 100 mg/kg p.o. daily"}},
  "note": "Read-outs that look alike come from different tables or passages of the source.",
  "data": [
    {"smiles": "C=C(F)C(=O)N1CCN(c2nc(OC[C@@H]3CCCN3C)nc3c2CCN(c2cccc4cccc(Cl)c24)C3)C[C@@H]1CC#N", "note": "[Compound 478]", "values": [
      {"measurement": "tumor regression", "setting": "H2122 cells [1]", "value": 3, "unit": "%"},
      {"measurement": "Average Tumor Volumes", "setting": "LU6405 cells (PDX model); [6]", "value": 256.06, "unit": "mm^3"},
      {"measurement": "Average Tumor Volumes", "setting": "LU6405 cells (PDX model); [7]", "value": 308.98, "unit": "mm^3"},
      {"measurement": "Average Tumor Volumes", "setting": "LU6405 cells (PDX model); [8]", "value": 324.46, "unit": "mm^3"},
      {"measurement": "Average Tumor Volumes", "setting": "LU6405 cells (PDX model); [9]", "value": 329.09, "unit": "mm^3"},
      {"measurement": "Average Tumor Volumes", "setting": "LU6405 cells (PDX model); [10]", "value": 310.21, "unit": "mm^3"},
      {"measurement": "Average Tumor Volumes", "setting": "LU6405 cells (PDX model); [11]", "value": 290.88, "unit": "mm^3"},
      {"measurement": "Average Tumor Volumes", "setting": "LU6405 cells (PDX model); [12]", "value": 257.34, "unit": "mm^3"},
      {"measurement": "Average Tumor Volumes", "setting": "LU6405 cells (PDX model); [13]", "value": 249.19, "unit": "mm^3"},
      {"measurement": "tumor growth inhibition", "setting": "LU6405 cells (PDX model); LU6405-implanted mice, Day 34 (Treatment Day 24), single agent 100 mg/kg p.o. daily", "value": 96, "unit": "%"},
      {"measurement": "tumor regression", "setting": "CR6258 Tumor; CR6258-implanted mice, Day 37 (Treatment Day 27), Compound 478 100 mg/kg p.o. daily alone or with cetuximab 0.25 mg/kg i.p. every three days", "value": 71, "unit": "%"},
      {"measurement": "Average Tumor Volumes", "setting": "CR6258 Tumor; [14]", "value": 190.54, "unit": "mm^3"},
      {"measurement": "Average Tumor Volumes", "setting": "CR6258 Tumor; Day 18 post implant, from Day 11: Compound 478 100 mg/kg p.o. daily", "value": 256.91, "unit": "mm^3"},
      {"measurement": "Average Tumor Volumes", "setting": "CR6258 Tumor; Day 25 post implant, from Day 11: Compound 478 100 mg/kg p.o. daily", "value": 201.00, "unit": "mm^3"},
      {"measurement": "Average Tumor Volumes", "setting": "CR6258 Tumor; Day 28 post implant, from Day 11: Compound 478 100 mg/kg p.o. daily", "value": 128.77, "unit": "mm^3"},
      {"measurement": "Average Tumor Volumes", "setting": "CR6258 Tumor; Day 32 post implant, from Day 11: Compound 478 100 mg/kg p.o. daily", "value": 77.44, "unit": "mm^3"},
      {"measurement": "Average Tumor Volumes", "setting": "CR6258 Tumor; Day 35 post implant, from Day 11: Compound 478 100 mg/kg p.o. daily", "value": 56.15, "unit": "mm^3"},
      {"measurement": "Average Tumor Volumes", "setting": "CR6258 Tumor; Day 39 post implant, from Day 11: Compound 478 100 mg/kg p.o. daily", "value": 44.24, "unit": "mm^3"},
      {"measurement": "Average Tumor Volumes", "setting": "CR6258 Tumor; Day 42 post implant, from Day 11: Compound 478 100 mg/kg p.o. daily", "value": 41.80, "unit": "mm^3"},
      {"measurement": "Average Tumor Volumes", "setting": "CR6258 Tumor; Day 46 post implant, from Day 11: Compound 478 100 mg/kg p.o. daily", "value": 29.92, "unit": "mm^3"},
      {"measurement": "Average Tumor Volumes", "setting": "CR6258 Tumor; Day 49 post implant, from Day 11: Compound 478 100 mg/kg p.o. daily", "value": 19.79, "unit": "mm^3"},
      {"measurement": "single-agent anti-tumor activity", "setting": "[2]; CR2528-implanted mice, Day 34 (Treatment Day 24), 100 mg/kg p.o. daily", "value": "no single-agent anti-tumor activity"},
      {"measurement": "Average Tumor Volumes", "setting": "[2]; [14]", "value": 265.11, "unit": "mm^3"},
      {"measurement": "Average Tumor Volumes", "setting": "[2]; Day 14 post implant, from Day 11: Compound 478 100 mg/kg p.o. daily", "value": 350.48, "unit": "mm^3"},
      {"measurement": "Average Tumor Volumes", "setting": "[2]; Day 17 post implant, from Day 11: Compound 478 100 mg/kg p.o. daily", "value": 434.64, "unit": "mm^3"},
      {"measurement": "Average Tumor Volumes", "setting": "[2]; Day 20 post implant, from Day 11: Compound 478 100 mg/kg p.o. daily", "value": 656.73, "unit": "mm^3"},
      {"measurement": "Average Tumor Volumes", "setting": "[2]; Day 24 post implant, from Day 11: Compound 478 100 mg/kg p.o. daily", "value": 950.91, "unit": "mm^3"},
      {"measurement": "Average Tumor Volumes", "setting": "[2]; Day 27 post implant, from Day 11: Compound 478 100 mg/kg p.o. daily", "value": 1252.80, "unit": "mm^3"},
      {"measurement": "Average Tumor Volumes", "setting": "[2]; Day 31 post implant, from Day 11: Compound 478 100 mg/kg p.o. daily", "value": 1713.13, "unit": "mm^3"},
      {"measurement": "Average Tumor Volumes", "setting": "[2]; Day 34 post implant, from Day 11: Compound 478 100 mg/kg p.o. daily", "value": 2757.63, "unit": "mm^3"},
      {"measurement": "tumor growth inhibition", "setting": "KYSE-410 cells [3]", "value": 71, "unit": "%"},
      {"measurement": "Average Tumor Volumes", "setting": "H2122 cells [4]; [6]", "value": 325.05, "unit": "mm^3"},
      {"measurement": "Average Tumor Volumes", "setting": "H2122 cells [4]; Day 13 post implant, p.o. daily from Day 11: Compound 478 100 mg/kg", "value": 339.80, "unit": "mm^3"},
      {"measurement": "Average Tumor Volumes", "setting": "H2122 cells [4]; Day 15 post implant, p.o. daily from Day 11: Compound 478 100 mg/kg", "value": 337.58, "unit": "mm^3"},
      {"measurement": "Average Tumor Volumes", "setting": "H2122 cells [4]; [8]", "value": 381.78, "unit": "mm^3"},
      {"measurement": "Average Tumor Volumes", "setting": "H2122 cells [4]; Day 20 post implant, p.o. daily from Day 11: Compound 478 100 mg/kg", "value": 462.40, "unit": "mm^3"},
      {"measurement": "Average Tumor Volumes", "setting": "H2122 cells [4]; Day 22 post implant, p.o. daily from Day 11: Compound 478 100 mg/kg", "value": 479.48, "unit": "mm^3"},
      {"measurement": "Average Tumor Volumes", "setting": "H2122 cells [4]; [10]", "value": 492.76, "unit": "mm^3"},
      {"measurement": "Average Tumor Volumes", "setting": "H2122 cells [4]; Day 27 post implant, p.o. daily from Day 11: Compound 478 100 mg/kg", "value": 541.06, "unit": "mm^3"},
      {"measurement": "Average Tumor Volumes", "setting": "H2122 cells [4]; Day 29 post implant, p.o. daily from Day 11: Compound 478 100 mg/kg", "value": 537.14, "unit": "mm^3"},
      {"measurement": "Average Tumor Volumes", "setting": "H2122 cells [4]; [12]", "value": 547.06, "unit": "mm^3"},
      {"measurement": "Average Tumor Volumes", "setting": "H2122 cells [4]; [13]", "value": 546.96, "unit": "mm^3"},
      {"measurement": "tumor growth inhibition", "setting": "H2122 cells [4]; H2122 tumor bearing mice, Day 22 (Treatment Day 10), single agent, Compound 478 100 mg/kg, afatinib 12.5 mg/kg p.o. daily", "value": 85, "unit": "%"},
      {"measurement": "Average Tumor Volumes", "setting": "KYSE-410 cells [5]; [6]", "value": 307.30, "unit": "mm^3"},
      {"measurement": "Average Tumor Volumes", "setting": "KYSE-410 cells [5]; [7]", "value": 274.64, "unit": "mm^3"},
      {"measurement": "Average Tumor Volumes", "setting": "KYSE-410 cells [5]; Day 16 post implant, p.o. daily from Day 11: Compound 478 100 mg/kg", "value": 311.34, "unit": "mm^3"},
      {"measurement": "Average Tumor Volumes", "setting": "KYSE-410 cells [5]; [8]", "value": 297.62, "unit": "mm^3"},
      {"measurement": "Average Tumor Volumes", "setting": "KYSE-410 cells [5]; [9]", "value": 338.18, "unit": "mm^3"},
      {"measurement": "Average Tumor Volumes", "setting": "KYSE-410 cells [5]; Day 23 post implant, p.o. daily from Day 11: Compound 478 100 mg/kg", "value": 320.42, "unit": "mm^3"},
      {"measurement": "Average Tumor Volumes", "setting": "KYSE-410 cells [5]; [10]", "value": 358.68, "unit": "mm^3"},
      {"measurement": "Average Tumor Volumes", "setting": "KYSE-410 cells [5]; [11]", "value": 459.20, "unit": "mm^3"},
      {"measurement": "Average Tumor Volumes", "setting": "KYSE-410 cells [5]; Day 30 post implant, p.o. daily from Day 11: Compound 478 100 mg/kg", "value": 441.60, "unit": "mm^3"},
      {"measurement": "Average Tumor Volumes", "setting": "KYSE-410 cells [5]; [12]", "value": 480.62, "unit": "mm^3"},
      {"measurement": "Average Tumor Volumes", "setting": "KYSE-410 cells [5]; Day 37 post implant, p.o. daily from Day 11: Compound 478 100 mg/kg", "value": 525.86, "unit": "mm^3"},
      {"measurement": "tumor growth inhibition", "setting": "KYSE-410 cells [5]; KYSE-410 tumor bearing mice, Day 37 (Treatment Day 27), single agent 100 mg/kg p.o. daily", "value": 64, "unit": "%"}
    ]}
  ]
}
